Earlier results, collected in patent publication US8645075B2, “Method for predicting organ toxicity and a system thereof” (Strand Life Sciences PVT Ltd., priority 2008, dated 2014).
Read-outs that look alike come from different tables or passages of the source. One block for each compound: values may come before it.

Legend:
CPT1 = target: T1, CPT1 (Homo sapiens, UniProt P50416)
T1 sequence (P50416 1-773): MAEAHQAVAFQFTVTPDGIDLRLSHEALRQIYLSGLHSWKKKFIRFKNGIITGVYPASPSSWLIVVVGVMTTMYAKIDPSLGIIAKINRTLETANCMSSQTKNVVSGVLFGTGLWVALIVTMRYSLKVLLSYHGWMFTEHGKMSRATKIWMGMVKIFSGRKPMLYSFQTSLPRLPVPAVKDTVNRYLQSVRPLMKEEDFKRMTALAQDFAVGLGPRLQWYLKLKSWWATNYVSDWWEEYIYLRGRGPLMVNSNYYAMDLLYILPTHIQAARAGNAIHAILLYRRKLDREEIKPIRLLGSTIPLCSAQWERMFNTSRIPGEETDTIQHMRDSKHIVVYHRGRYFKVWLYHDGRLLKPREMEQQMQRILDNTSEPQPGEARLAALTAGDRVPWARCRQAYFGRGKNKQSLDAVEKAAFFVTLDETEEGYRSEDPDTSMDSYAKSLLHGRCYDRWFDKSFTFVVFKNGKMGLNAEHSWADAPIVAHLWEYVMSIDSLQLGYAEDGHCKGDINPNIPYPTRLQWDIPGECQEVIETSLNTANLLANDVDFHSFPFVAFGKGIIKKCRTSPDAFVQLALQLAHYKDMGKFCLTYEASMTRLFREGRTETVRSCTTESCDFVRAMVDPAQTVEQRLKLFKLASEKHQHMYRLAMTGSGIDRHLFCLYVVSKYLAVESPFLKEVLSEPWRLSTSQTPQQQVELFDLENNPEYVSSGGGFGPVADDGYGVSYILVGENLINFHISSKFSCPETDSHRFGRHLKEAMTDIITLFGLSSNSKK

FoF1 ATPase = details: experimental value used for model validation

Triglyceride accumulation, Experiment (CPT1; experimental value used for model validation): 150%
SMILES: CCCCc1oc2ccccc2c1C(=O)c1cc(I)c(OCCN(CC)CC)c(I)c1 [Amiodarone]

SMILES: C=C(C)[C@]12C[C@@H](C)[C@@]34O[C@](c5ccccc5)(O[C@@H]1[C@@H]3[C@@H]1O[C@]1(CO)[C@@H](O)[C@]1(O)C(=O)C(C)=C[C@H]14)O2 [Daphnetoxin]
EC value (Energy Charge), Experiment (FoF1 ATPase): 0.52

Triglyceride accumulation, Experiment (CPT1): 98%
SMILES: C1CCC(C(CC2CCCCN2)C2CCCCC2)CC1 (stereo not drawn) [Perhexilline]
